Assay results as given in BindingDB's records for doi:10.1016/j.bmcl.2004.07.050 (University of Georgia, 2004).

Target: Integrase (HIV-1)
Test: Inhibitory activity against strand transfer in wild-type HIV-1 integrase was determined using 21-mer oligonucleotide substrate

| IC50 [µM] | Structure (SMILES) |
| --- | --- |
| 41 | Nc1ncnc2c1ncn2C1CC(OP(=O)(O)OCC2OCC(n3cnc4c(N)ncnc43)C2O)C(COP(=O)(O)O)O1 (configuration not stated) [Phosphoric acid 4-(6-amino-purin-9-yl)-3-hydroxy-tetrahydro-furan-2-ylmethyl ester 5-(6-amino-purin-9-yl)-2-phosphonooxymethyl-tetrahydro-furan-3-yl ester] |
| 65 | Nc1ccn(C2COC(COP(=O)(O)OC3CC(n4cnc5c(N)ncnc54)OC3COP(=O)(O)O)C2O)c(=O)n1 (configuration not stated) [[4-(4-amino-2-oxo-1,2-dihydropyrimidin-1-yl)-3-hydroxyoxolan-2-yl]methyl [5-(6-amino-9H-purin-9-yl)-2-[(phosphonatooxy)methyl]oxolan-3-yl] phosphate] |
